Assay results published in patent US12129248B2, “Chromobox protein inhibitors and uses thereof” (Dana-Farber Cancer Institute, Inc., priority 2016, dated 2024).

Legend:
Human His6-CBX7 = Human His6-CBX7 (Homo sapiens (Human), UniProt O95931); assay: CBX7 AlphaScreen assay (binding of CBX7 chromodomain to H3K27me3 peptide); details: for IC50: average, His6-CBX7 / biotinylated-H3K27me3, read-out: AVG CBX7 Alpha IC50
Excerpt: A biochemical assay was developed based on nanoparticle AlphaScreen assay to monitor the binding of recombinant CBX chromodomain (CBX7) to a methylated peptide (H3K27me3).
The primary assay uses recombinant CBX chromodomain and synthetic, trimethylated H3 histone tail peptide. When CBX/histone tail-binding occurs, AlphaScreen beads are brought in close proximity, resulting in singlet molecular oxygen transfer and production of a luminescent signal. Assay positives inhibiting the binding interaction are therefore expected to prevent complex formation, diminishing signal intensity. The AlphaScreen technology features an anti-Stokes shift in detection: due to energy transfer between beads by singlet oxygen and internal chemical reactions within the acceptor bead, the emission wavelength is blue-shifted relative to the excitation wavelength, which is impossible in traditional fluorescent assays. The relatively long path length of 200 nm that singlet molecular oxygen can travel enables reporting on full protein complexes and not just single target binding. […] Neither the small molecules being tested nor the target protein, CBX7, need to be chemically, conformationally, or behaviorally altered by tethering them to a surface or reporter that may decrease physiological relevance and beget screening artifacts. The primary assay monitors binding of the chromodomain of CBX7 to a histone tail containing a trimethylated lysine at K27, the biologically relevant interaction through which PRC binds to chromatin to repress transcription. This is a robust proximity-based assay that utilizes AlphaScreen technology (PerkinElmer). The assay consists of His6-CBX7 bound to a Ni^++ acceptor bead and the biotinylated histone tail bound to a streptavadin donor bead. Upon CBX7/H3K27me3 binding, the steptavidin bead comes into proximity with the Ni^++ bead to luminesce upon light excitation ([…]; see below).
The protocol for the CBX7 AlphaScreen was as follows: a standard alpha buffer (50 mM HEPES, 150 mM NaCl, 0.1% w/v BSA, 0.01% w/v Tween20) at pH 8.0 and make up two stock solutions at 2× final concentration in the alpha buffer. Solution A contains Human His6-CBX7 is used with biotinylated-H3K27me3 (residues 20-34), at 100 nM and 50 nM respectively. Solution B contains 20 nM streptavidin donor beads and 20 nM nickel acceptor beads. For 384 well assay formats, 10 uL of solution A is added to each well of the assay plate and the plate is spun at 1000 rpm for 30 seconds. 100 nL of experimental compounds from stock plates are delivered by robotic pin transfer using a Janus Workstation (PerkinElmer), allowing the compounds to interact with CBX7 binding prior to assay measurement, followed by another spin and an incubation room temperature. Finally, 10 uL of solution B is added to each well, the plate is spun again and then incubated at room temperature. AlphaScreen measurements are performed on an Envision 2104 (PerkinElmer) utilizing the manufacturer's protocol that has the correct excitation and emission wavelengths, cutoff filters, delay time, etc. A crosstalk calculation is also done through the Envision software to correct for luminescence for adjacent wells while reading the plate. The signal is then normalized to DMSO control wells on the compound plate prior to creation of the IC50 curves.

[1] = tested on: HCT292 human lung cancer cells; assay: HCT292 cell viability (crystal violet / ATPlite); type: cell-based; details: for % Viability / viability at 50 µM / viability at 20 µM / viability at 10 µM: HCT292 cells, relative to DMSO; for % Viability: 96 hours; for IC50 / viability at 50 µM / viability at 20 µM / viability at 10 µM: Homo sapiens; for IC50: Table 4, assay not given, cited among cellular activity Tables 3-9 (HCT292); for viability at 50 µM / viability at 20 µM / viability at 10 µM: 96 h
Method: Lastly, the biological activity of lead compounds was assessed in cancer cells lines determined to be sensitive to CBX inhibition. First, a cell line screening for CBX2 and CBX3 dependence/sensitivity was conducted using shRNAs. […] These cell lines were utilized to evaluate the potential cellular activity of a panel of CBX inhibitors (Tables 3-9).
Briefly, HCT292 cells were treated 24 hours after passage; the compounds in DMSO were added directly to their media. Initially, which cells caused cell death was checked by fixing and staining the cells with crystal violet 96-hours post treatment and then reading the absorbance using the Envision and comparing the signal to a DMSO control. This was done as a preliminary viability screen prior to the ATPlite assay to determine which compounds HCT292 cells were and H661 cells were not sensitive to. […] Thus, a cellular system to evaluate the activity of small molecule CBX inhibitors was established.

CBX7 = CBX7 (Homo sapiens (Human), UniProt O95931); assay: Isothermal titration calorimetry; type: binding; details: in words (FIG. 20)
Sequence of CBX7 (O95931 whole entry): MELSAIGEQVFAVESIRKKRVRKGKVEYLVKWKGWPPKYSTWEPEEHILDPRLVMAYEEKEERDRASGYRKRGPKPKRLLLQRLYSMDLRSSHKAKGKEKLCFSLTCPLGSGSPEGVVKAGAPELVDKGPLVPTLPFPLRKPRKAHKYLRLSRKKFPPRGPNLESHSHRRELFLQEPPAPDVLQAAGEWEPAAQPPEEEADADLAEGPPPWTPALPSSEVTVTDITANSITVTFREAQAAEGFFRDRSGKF
Excerpt: A new series of compounds were designed and synthesized based on computational modeling of inhibitor compounds with the literature reported crystal structure of CBX.

Sequence of Human His6-CBX7 (O95931 11-69): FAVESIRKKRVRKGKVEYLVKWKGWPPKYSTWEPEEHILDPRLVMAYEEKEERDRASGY

IC50 (Human His6-CBX7) [µM] | SMILES | further results
0.93 | O=C(CC1S/C(=N/N=C/c2ccc(O)c(O)c2O)NC1=O)Nc1ccc(N2CCCC2)cc1 (stereo not drawn) [ACV-17 (2)] | % Viability ([1]; 50 uM, listed as 2-165): 58.8%; IC50 [1]: 0.334 µM
155 | CN(C)c1ccc(CCNC(=O)CC2S/C(=N/N=C/c3cccnc3)NC2=O)cc1 (stereo not drawn) [ACV-42] | viability at 50 µM ([1]; 50 uM): 95.8%; IC50 [1]: 1000 µM
10.2 | O=C(CC1S/C(=N/N=C/c2cccnc2)NC1=O)Nc1ccc(N2CCCC2)cc1 (stereo not drawn) [ACV-14 (2)] | IC50 [1]: 115 µM
5.31 | CN1CCN(CCNC(=O)CC2S/C(=N/N=C/c3ccc(O)c(O)c3O)NC2=O)CC1 (stereo not drawn) [ACV-63 (CP)] | % Viability ([1]; 10 uM, listed as 2-195 (CP)): 34.9%; viability at 20 µM [1]: 41%; viability at 50 µM ([1]; 50 uM): 60.6%
879 | COc1ccc(CC(=O)Nc2nc3cc(C(=O)NCCN4CCN(C)CC4)ccc3s2)cc1OC [ACV-95] | 
65.3 | O=C(CC1SCC(C(=O)N/N=C/c2cccnc2)NC1=O)Nc1ccc(N2CCCC2)cc1 (stereo not drawn) [ACV-24] | 
11.8 | O=C(CC1SC(N/N=C/c2ccc(O)c(O)c2O)=NC1=O)Nc1ccc(N2CCCCCC2)cc1 (stereo not drawn) [ACV-86] | 
1.74 | O=C(CC1S/C(=N/N=C/c2ccc(O)c(O)c2O)NC1=O)Nc1ccc(N2CCCC2)cc1 (stereo not drawn) [ACV-17(CP)] | % Viability ([1]; 50 uM, listed as 258C (CP)): 20.3%
26.3 | O=C(CC1S/C(=N/N=C/c2ccc(Cl)nc2)NC1=O)Nc1ccc(N2CCCC2)cc1 (stereo not drawn) [ACV-39] | 
33.9 | Cc1ccc(/C=N/N=C2\NC(=O)C(CC(=O)Nc3ccc(N4CCCC4)cc3)S2)cc1F (stereo not drawn) [ACV-27] | 
12.8 | O=C(Cc1cnc(NC(=O)Nc2cccnc2)s1)Nc1ccc(N2CCCC2)cc1 [ACV-40, 2-(2-(3-(pyridin-3-yl)ureido)thiazol-5-yl)-N-(4-(pyrrolidin-1-yl)phenyl)acetamide] | viability at 10 µM ([1]; 10 uM): 99%; viability at 50 µM ([1]; 50 uM): 82.9%; IC50 [1]: 83.9 µM
101 | COc1ccc(-c2ccc3nc(-c4ccco4)cc(C(=O)Nc4ccc(N5CCN(C)CC5)cc4)c3c2)cc1OC [ACV-44] | 
114 | COc1cccc(/C=N/N=C2\NC(=O)C(CC(=O)Nc3ccc(N4CCCC4)cc3)S2)c1OC (stereo not drawn) [ACV-37] | 
10.3 | CN(C)c1ccc(CCNC(=O)c2cc(-c3ccco3)nc3ccccc23)cc1 [ACV-08] | 
4920 | O=C(CCC(=O)N1CCCC(NC(=O)c2cccnc2)C1)c1ccc(CN2CCCC2)cc1 (stereo not drawn) [ACV-71] | 
23 | O=C(Cc1cnc(NC(=O)Nc2cccnc2)s1)Nc1ccc(CN2CCCC2)cc1 [ACV-55] | 
0.445 | O=C(N/N=C/c1c(O)cc(O)cc1O)c1cc(-c2ccco2)nc2ccccc12 [ACV-03] | improvement in binding affinity compared to the original scaffold (Human His6-CBX7; versus Scaffold 2 (FIG. 7)): more than 5 fold
12.9 | O=C(Nc1ccc(N2CCCC2)cc1)c1ccc(-c2csc(CCN3CCOCC3)n2)cc1 [ACV-89] | viability at 10 µM ([1]; 10 uM): 31.3%; viability at 20 µM [1]: 29%; viability at 50 µM ([1]; 50 uM): 28%

IC50 (Human His6-CBX7) [µM] | SMILES | further results
12 | COC(=O)c1ccc2nc(-c3ccc(O)c(O)c3O)c(NCc3ccccc3)n2c1 [ACV-91] | viability at 10 µM ([1]; 10 uM): 33.5%; viability at 20 µM [1]: 30.5%; viability at 50 µM ([1]; 50 uM): 18%
 | COC(=O)C1CSC(CC(=O)Nc2ccc(N3CCCC3)cc2)C(=O)N1 (stereo not drawn) [ACV-22] | binding affinity with CBX (Human His6-CBX7; in words (FIG. 9)): low micromolar; binding affinity by isothermal titration calorimetry (CBX7): further confirmed
79.3 | O=C(Cc1ccc(O)c(O)c1)NCc1nc(CC(=O)Nc2ccc(N3CCCC3)cc2)cs1 [ACV-96] | 
6.79 | O=C(CC1S/C(=N/N=C/c2ccc(C(=O)O)cc2)NC1=O)Nc1ccc(N2CCCC2)cc1 (stereo not drawn) [ACV-16] | 
3.37 | O=C(CC1S/C(=N/N=C/c2ccc(O)c(O)c2O)NC1=O)Nc1ccc(N2CCCC2)cc1 (stereo not drawn) [ACV-17* (P2)] | 
69.7 | O=C(CC1S/C(=N/N=C/c2ccc(O)c(O)c2O)NC1=O)Nc1ccc(N2CCCC2)cc1 (stereo not drawn) [ACV-17 (1), 2-(4-oxo-2-((2,3,4-trihydroxybenzylidene)hydrazono)thiazolidin-5-yl)-N-(4-(pyrrolidin-1-yl)phenyl) acetamide] | % Viability ([1]; 50 uM, listed as 1-258C): 33.0%; viability at 10 µM ([1]; 10 uM): 72.2%
7.2 | COc1cc(NC(=O)Nc2ncc(CC(=O)Nc3ccc(N4CCCC4)cc3)s2)cc(OC)c1OC [ACV-50] | 
3.94 | O=C(Nc1csc(N/N=C/c2ccc(O)c(O)c2O)n1)c1ccc(CCN2CCCC2)cc1 [ACV-61] | 
0.225 | O=C(CC1SC(N/N=C/c2ccc(O)c(O)c2O)=NC1=O)Nc1ccc(N2CCCCC2)cc1 (stereo not drawn) [ACV-78] | 
24.1 | O=C(Cc1cnc(NC(=O)Nc2cccc(C(F)(F)F)c2)s1)Nc1ccc(N2CCCC2)cc1 [ACV-51] | 
0.183 | CN1CCN(CCNC(=O)CC2S/C(=N/N=C/c3ccc(O)c(O)c3O)NC2=O)CC1 (stereo not drawn) [ACV-63, N-(2-(4-methylpiperazin-1-yl)ethyl)-2-(4-oxo-2-((2,3,4-trihydroxybenzylidene)hydrazono)thiazolidin-5-yl)acetamide] | % Viability ([1]; 10 uM, listed as 2-195): 94.2%; % Viability ([1]; 50 uM, listed as 2-195): 43.5%
1.65 | O=C(NCCN1CCCC1)c1ccc(-c2csc(N/N=C/c3ccc(O)c(O)c3O)n2)cc1 [ACV-73] | 
9100 | COc1ccc(-c2ccc3nc(-c4ccco4)cc(C(=O)NCCc4ccc(N(C)C)cc4)c3c2)cc1OC [ACV-43] | 
246 | COc1ccc(NC(=O)Cc2csc(NCCN3CCN(C)CC3)n2)c(OC)c1 [ACV-88] | 
14400 | O=C(Cc1cnc(NC(=O)Nc2cc(F)c(F)cc2F)s1)Nc1ccc(N2CCCC2)cc1 [ACV-47] | 
167 | O=C(Cc1cnc(NC(=O)C(F)(F)c2ccccc2)s1)Nc1ccc(N2CCCC2)cc1 [ACV-74] | 
7.26 | COC(=O)Cc1csc(N/N=C/c2ccc(O)c(O)c2O)n1 [ACV-87] | 
194 | O=C(O)c1cc(-c2ccco2)nc2ccccc12 [ACV-07 (2)] | 
